Results on ten compounds are retold here after patent publication US20210300939A1, “Single Molecule Compounds Providing Multi-Target Inhibition of BTK and Other Proteins and Methods of Use Thereof” (SignalRx Pharmaceuticals, Inc., priority 2018, published 2021).

The subject of one assay is PI3 kinases. Particulars: cited from earlier work.
The subject of assay [1] is JeKo-1 cells. The assay can be described thus: Cell viability (Celltiter-Glo), JeKo-1. It counts as cell-based. The conditions noted are these: Homo sapiens, 48 hours. The procedure: (§1) The results of this experiment are shown in FIGS. 1A-1C, and in Table 7 below. Human mantle cell lymphoma cell lines were grown in 96 well plates with 5000 cells per well in RPMI 1640 media supplemented with 10% fetal bovine serum. Cells were treated for 48 hours with a concentration range of each compound from 50 nM to 50 uM. Cell viability a measure of viable cell numbers was determined using a Celltiter-Glo^R reagent for each concentration in order to construct an IC50 curve for each compound in each cell line.

Assay [2] has as its system Mino cells. The assay can be described thus: Cell viability (Celltiter-Glo), Mino. It counts as cell-based. The conditions noted are these: Homo sapiens, 48 hours. The procedure: as §1
The test system of another assay is Granta519 cells. The assay can be described thus: Cell viability (Celltiter-Glo), Granta519. The assay is classed as cell-based. The conditions noted are these: Homo sapiens, Granta-519, 48 hours. The procedure: as §1
In assay [3] the test system is Human mantle cell lymphoma cell lines. The assay can be described thus: Cell viability, mantle cell lymphoma cell lines (overall conclusion). It counts as cell-based. The conditions noted are these: in vitro, 48 hours. As for the experimental part: as §1
In assay [4] the test system is pBTK(Y223) in JeKo and Mino cells. The assay can be described thus: Western blot, phosphorylation of BTK at Tyr223 in anti-IgM stimulated cells. The assay is classed as cell-based, human. Particulars: JeKo cells stimulated with F(ab′) and anti-human IgM, various concentrations, FIG. 3B.
Assay [5] relates to pAKT(S473) in JeKo and Mino cells. The assay can be described thus: Western blot, phosphorylation of AKT at Ser 473 in anti-IgM stimulated cells. It counts as cell-based, human. The conditions noted are these: JeKo cells stimulated with F(ab′) and anti-human IgM, various concentrations, FIG. 3B. The procedure: Phosphorylation of BTK at Tyr223 and AKT at Ser 473 were determined by Western blot analysis. The results are shown in FIGS. 2A-2B (JeKo cells) and FIGS. 2C-2D (Mino cells). Blots were reprobed for total BTK, AKT, and β-actin.

Assay [6] has as its system JeKo-1 cells. The assay can be described thus: Percentage cells in apoptosis, JeKo-1. The assay is classed as cell-based, human. An excerpt:
(§2) Additionally apoptosis data was obtained in both JeKo and Mino cells for compound 7.

Assay [7] relates to Mino cells. The assay can be described thus: Percentage cells in apoptosis, Mino. The assay is classed as cell-based, human. The conditions noted are these: 24-hour.
Excerpt: as §2

Assay [8] deals with T1, BRD4-1 (binding domain 1 of BRD4) (Homo sapiens, UniProt O60885).
T1 construct: purchased Reaction Biology Corp., Malvern, Pa; (contract assay)
The assay can be described thus: BRD4 binding domain 1 inhibition (Reaction Biology Corp.). Particulars: 10-point curve; read-out: Target IC50 BRD4-1. The procedure: (§3) The BTK, PI3K, and/or bromodomain inhibitory activity of a compound of the invention can be determined by methods known to the skilled artisan, or by procuring relevant analysis by a commercial vendor offering such services. […] In vivo, PI3K inhibition can be determined from target tissue biopsies by standard tissue processing in which cells are disrupted and Western Blot analysis is performed to determine the presence or absence of pAKT (substrate of PI3K) relative to a control sample. PI3K inhibition assays and BTK inhibition assays are known in the art and can be procured commercially through vendors such as Reaction Biology (Malvern, Pa.). The activity of a compound of the invention as an inhibitor of a bromodomain-containing protein, such as a BET protein, including BRD2, BRD3, BRD4, and/or BRDT, or an isoform or mutant thereof, may be determined in vitro, in vivo, or in a cell line. In vitro assays include assays that determine inhibition of bromodomain-containing proteins. Alternatively, inhibitor binding may be determined by running a competition experiment where a provided compound is incubated with a bromodomain-containing protein, such as a BET protein bound to known ligands, labeled or unlabeled. In vitro bromodomain inhibition assays can be performed using Alpha Screen Technology (Perkin Elmer Life and Analytical Sciences, Shelton, Conn.). In vivo bromodomain inhibition can be determined indirectly by evaluating the amount of a protein whose gene transcription is influenced or controlled by the bromodomain protein, for example, MYCN protein transcription is controlled by BRD4 (J. E. Delmore et al., Cell 2011, 146, 904-917; A. Puissant, Cancer Discov. 2013, 3, 308-323).
(§4) Compounds of the invention were analyzed for their ability to inhibit target proteins in vitro. PI3K alpha, gamma, and delta inhibition activity was determined by Thermo Fisher Scientific-Biosciences Life Sciences Solutions, Madison, Wis. The bromodomain protein inhibition (binding domain 1 and 2 of BRD4) was determined at Reaction Biology Corp., Malvern, Pa. BTK inhibition was performed by Reaction Biology Corp., Malvern, Pa.
(§5) Additional information regarding the testing procedures is available at each company's website on the internet. The IC50 data was calculated from a 10-point curve by the vendor and is compiled in ranges in the Table 6 below.

Assay [9] has as its target T2, BRD4-2 (binding domain 2 of BRD4) (Homo sapiens, UniProt O60885).
T2 construct: purchased Reaction Biology Corp., Malvern, Pa; (contract assay)
The assay can be described thus: BRD4 binding domain 2 inhibition (Reaction Biology Corp.). The conditions noted are these: 10-point curve; read-out: Target IC50 BRD4-2. As for the experimental part:
as §3, §4, §5

A further assay deals with T3, PI3K δ (Homo sapiens, UniProt O00329).
T3 construct: purchased Thermo Fisher Scientific-Biosciences Life Sciences Solutions, Madison, Wis; (contract assay)
T3 sequence (O00329 whole entry): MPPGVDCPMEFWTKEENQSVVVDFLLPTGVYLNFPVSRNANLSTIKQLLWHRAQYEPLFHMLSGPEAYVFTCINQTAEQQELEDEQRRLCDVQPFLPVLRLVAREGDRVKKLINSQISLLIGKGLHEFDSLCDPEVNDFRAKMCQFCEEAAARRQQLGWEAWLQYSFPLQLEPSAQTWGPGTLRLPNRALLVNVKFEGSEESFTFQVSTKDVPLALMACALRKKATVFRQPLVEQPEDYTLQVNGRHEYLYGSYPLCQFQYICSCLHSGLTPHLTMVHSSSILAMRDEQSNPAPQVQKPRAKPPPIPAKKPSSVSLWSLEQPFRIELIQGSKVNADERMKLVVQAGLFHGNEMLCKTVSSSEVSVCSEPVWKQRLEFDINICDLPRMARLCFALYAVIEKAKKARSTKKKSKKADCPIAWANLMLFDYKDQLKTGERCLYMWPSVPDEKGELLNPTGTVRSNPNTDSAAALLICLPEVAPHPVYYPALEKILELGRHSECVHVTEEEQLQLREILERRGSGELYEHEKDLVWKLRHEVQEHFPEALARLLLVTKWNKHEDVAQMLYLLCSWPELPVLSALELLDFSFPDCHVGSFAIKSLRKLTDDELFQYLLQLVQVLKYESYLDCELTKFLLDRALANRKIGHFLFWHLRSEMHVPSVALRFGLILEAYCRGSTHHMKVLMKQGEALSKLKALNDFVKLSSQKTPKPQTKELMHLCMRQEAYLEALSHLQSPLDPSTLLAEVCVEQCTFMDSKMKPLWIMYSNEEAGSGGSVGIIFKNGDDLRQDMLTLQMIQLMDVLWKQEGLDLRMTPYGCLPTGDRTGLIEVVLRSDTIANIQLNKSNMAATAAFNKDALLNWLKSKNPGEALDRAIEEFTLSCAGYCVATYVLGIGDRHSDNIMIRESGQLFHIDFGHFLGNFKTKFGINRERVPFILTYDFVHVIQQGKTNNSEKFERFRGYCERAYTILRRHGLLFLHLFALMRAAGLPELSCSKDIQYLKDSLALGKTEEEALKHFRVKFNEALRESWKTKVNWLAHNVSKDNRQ
T3 sequence (P27986 whole entry partner): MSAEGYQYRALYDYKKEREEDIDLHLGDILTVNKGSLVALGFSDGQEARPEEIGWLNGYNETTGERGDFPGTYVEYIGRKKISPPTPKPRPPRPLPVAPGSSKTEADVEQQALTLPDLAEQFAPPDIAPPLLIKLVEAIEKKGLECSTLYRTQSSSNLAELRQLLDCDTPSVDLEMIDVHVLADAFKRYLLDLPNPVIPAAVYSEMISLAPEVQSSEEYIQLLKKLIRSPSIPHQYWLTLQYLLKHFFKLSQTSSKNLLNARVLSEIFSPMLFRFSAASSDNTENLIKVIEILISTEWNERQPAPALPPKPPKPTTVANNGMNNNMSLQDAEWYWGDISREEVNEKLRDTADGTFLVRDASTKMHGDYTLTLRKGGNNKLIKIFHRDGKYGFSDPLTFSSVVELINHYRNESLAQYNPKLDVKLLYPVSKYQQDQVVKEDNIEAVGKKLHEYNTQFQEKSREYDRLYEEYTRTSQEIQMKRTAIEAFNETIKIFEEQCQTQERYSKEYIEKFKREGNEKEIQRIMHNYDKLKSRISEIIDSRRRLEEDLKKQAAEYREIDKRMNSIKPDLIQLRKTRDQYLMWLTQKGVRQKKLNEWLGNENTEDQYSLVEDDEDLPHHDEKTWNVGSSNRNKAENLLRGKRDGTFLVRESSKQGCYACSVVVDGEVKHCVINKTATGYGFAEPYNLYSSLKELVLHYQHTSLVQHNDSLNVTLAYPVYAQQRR
The assay can be described thus: PI3K delta inhibition (Thermo Fisher Scientific). It counts as biochemical. The conditions noted are these: 10-point curve; read-out: Target IC50 PI3K δ. As for the experimental part:
as §3, §4, §5

Another assay addresses T4, PI3K γ (Homo sapiens, UniProt P48736).
T4 construct: purchased Thermo Fisher Scientific-Biosciences Life Sciences Solutions, Madison, Wis; (contract assay)
The assay can be described thus: PI3K gamma inhibition (Thermo Fisher Scientific). Particulars: 10-point curve; read-out: Target IC50 PI3K γ. It counts as biochemical. The procedure: as §3, §4, §5

A further assay addresses T5, BTK (WT) (Homo sapiens, UniProt Q06187).
T5 construct: purchased Reaction Biology Corp., Malvern, Pa; (contract assay)
The assay can be described thus: native BTK inhibition (Reaction Biology Corp.). It counts as biochemical. The conditions noted are these: 10-point curve; read-out: Target IC50 BTK (WT). The procedure:
as §4, §5

The target of the next assay is T6, BTK (C481S) (Homo sapiens, UniProt Q06187, C481S).
T6 construct: purchased Reaction Biology Corp., Malvern, Pa; (contract assay)
T6 sequence (Q06187 whole entry C481S): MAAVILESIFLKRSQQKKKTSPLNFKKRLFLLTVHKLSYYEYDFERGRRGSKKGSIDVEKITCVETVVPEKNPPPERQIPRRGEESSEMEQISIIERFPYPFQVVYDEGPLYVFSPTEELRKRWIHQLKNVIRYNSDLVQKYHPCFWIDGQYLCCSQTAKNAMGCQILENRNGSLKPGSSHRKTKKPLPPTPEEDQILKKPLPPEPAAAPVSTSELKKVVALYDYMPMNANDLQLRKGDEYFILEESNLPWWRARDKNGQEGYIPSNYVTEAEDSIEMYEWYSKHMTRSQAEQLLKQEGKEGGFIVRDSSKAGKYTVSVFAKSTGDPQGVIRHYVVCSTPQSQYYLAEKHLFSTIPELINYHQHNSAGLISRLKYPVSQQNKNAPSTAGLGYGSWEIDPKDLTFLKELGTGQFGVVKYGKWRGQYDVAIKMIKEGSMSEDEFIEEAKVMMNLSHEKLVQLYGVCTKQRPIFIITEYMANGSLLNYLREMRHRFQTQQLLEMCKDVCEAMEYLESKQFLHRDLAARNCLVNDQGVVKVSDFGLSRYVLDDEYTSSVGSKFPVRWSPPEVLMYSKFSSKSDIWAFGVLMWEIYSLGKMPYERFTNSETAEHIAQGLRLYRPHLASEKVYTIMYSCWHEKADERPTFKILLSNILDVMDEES
The assay can be described thus: BTK cysteine mutant C481S inhibition (Reaction Biology Corp.). The assay is classed as biochemical. The conditions noted are these: for IC50: 10-point curve, read-out: Target IC50 BTK (C481S); for Ratio C481S/WT: ratio of the BTK IC50 values, C481S over wild-type. The procedure: as §4, §5

The test system of the next assay is breast cancer stem cells. The conditions noted are these: women with breast tumors with high levels of HER2 protein; decreased from 11%; cited from earlier work.
A further assay has as its target T7, PI3K α (Homo sapiens, UniProt P42336).
T7 construct: purchased Thermo Fisher Scientific-Biosciences Life Sciences Solutions, Madison, Wis; (contract assay)
The assay can be described thus: PI3K alpha inhibition (Thermo Fisher Scientific). The assay is classed as biochemical. Particulars: 10-point curve; read-out: Target IC50 PI3K α. As for the experimental part:
as §3, §4, §5

T5 sequence (Q06187 whole entry): as the sequence (Q06187 whole entry C481S) above, with S481C counted along it
T7 sequence (P42336 whole entry): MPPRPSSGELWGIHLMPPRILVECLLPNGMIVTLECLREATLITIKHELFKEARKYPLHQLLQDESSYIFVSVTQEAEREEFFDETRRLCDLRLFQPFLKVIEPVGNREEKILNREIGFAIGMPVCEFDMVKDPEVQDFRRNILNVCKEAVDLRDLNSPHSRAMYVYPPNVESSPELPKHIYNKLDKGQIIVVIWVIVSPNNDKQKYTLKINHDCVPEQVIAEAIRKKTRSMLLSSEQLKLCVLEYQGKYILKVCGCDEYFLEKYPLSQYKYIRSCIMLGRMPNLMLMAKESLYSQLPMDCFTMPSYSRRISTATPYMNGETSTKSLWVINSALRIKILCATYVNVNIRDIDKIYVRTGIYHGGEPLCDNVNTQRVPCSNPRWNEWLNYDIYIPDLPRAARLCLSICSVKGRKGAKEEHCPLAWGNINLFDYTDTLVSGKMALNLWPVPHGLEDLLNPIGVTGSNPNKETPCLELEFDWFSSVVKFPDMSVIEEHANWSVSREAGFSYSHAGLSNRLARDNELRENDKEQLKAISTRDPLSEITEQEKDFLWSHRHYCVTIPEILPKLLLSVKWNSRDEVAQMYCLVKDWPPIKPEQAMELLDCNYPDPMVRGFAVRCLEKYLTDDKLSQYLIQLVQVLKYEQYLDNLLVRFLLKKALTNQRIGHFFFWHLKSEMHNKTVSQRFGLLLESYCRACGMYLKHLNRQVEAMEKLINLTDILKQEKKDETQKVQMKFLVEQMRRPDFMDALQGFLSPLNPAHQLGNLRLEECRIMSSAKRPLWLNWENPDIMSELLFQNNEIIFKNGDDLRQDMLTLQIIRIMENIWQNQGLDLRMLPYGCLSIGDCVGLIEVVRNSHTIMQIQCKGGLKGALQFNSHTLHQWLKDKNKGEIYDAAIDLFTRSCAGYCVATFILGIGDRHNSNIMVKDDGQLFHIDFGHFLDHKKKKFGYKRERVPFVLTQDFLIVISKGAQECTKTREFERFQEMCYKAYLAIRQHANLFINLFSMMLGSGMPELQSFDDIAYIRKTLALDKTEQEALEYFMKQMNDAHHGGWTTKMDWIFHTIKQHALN
T7 sequence (P27986 whole entry partner): as the sequence (P27986 whole entry partner) above
T4 sequence (P48736 whole entry): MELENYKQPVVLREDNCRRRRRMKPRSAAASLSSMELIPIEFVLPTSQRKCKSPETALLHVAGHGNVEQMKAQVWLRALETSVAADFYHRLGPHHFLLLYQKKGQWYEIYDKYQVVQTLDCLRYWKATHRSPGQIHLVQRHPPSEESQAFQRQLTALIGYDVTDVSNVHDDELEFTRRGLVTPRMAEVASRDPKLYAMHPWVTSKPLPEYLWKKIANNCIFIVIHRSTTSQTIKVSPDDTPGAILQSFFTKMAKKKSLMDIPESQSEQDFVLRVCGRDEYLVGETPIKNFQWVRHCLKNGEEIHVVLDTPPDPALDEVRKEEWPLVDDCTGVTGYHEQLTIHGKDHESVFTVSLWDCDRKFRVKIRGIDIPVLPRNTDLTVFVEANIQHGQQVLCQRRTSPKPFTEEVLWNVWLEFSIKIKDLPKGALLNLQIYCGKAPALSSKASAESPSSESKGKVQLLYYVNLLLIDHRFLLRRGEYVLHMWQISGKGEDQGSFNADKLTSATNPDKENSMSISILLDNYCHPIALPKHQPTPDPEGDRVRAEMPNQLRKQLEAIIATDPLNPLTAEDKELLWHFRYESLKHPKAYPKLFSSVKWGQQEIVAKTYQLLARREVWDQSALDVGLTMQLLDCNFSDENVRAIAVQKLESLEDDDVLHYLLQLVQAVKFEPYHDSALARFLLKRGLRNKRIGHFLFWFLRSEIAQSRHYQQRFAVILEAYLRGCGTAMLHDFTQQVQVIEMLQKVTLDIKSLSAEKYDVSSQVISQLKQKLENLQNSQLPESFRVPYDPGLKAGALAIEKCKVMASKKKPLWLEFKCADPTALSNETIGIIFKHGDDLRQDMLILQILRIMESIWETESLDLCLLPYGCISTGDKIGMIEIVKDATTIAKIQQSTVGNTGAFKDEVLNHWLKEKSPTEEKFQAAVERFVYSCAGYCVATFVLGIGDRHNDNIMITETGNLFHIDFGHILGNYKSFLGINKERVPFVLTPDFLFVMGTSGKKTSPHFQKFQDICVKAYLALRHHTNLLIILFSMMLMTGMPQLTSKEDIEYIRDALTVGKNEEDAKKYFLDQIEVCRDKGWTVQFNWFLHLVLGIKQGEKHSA

Regarding `O=c1cc(N2CCOCC2)oc2c(-c3ccccc3)cccc12` [LY294002, 2-(4-morpholinyl)-8-phenyl-4H-1-benzopyran-4-one], the IC50 with PI3 kinases is 1.4 µM.

`C=CC(=O)Nc1ccc(-c2csc3c(=O)cc(N4CCOCC4)oc23)cc1` [Compound 13]: the IC50 with JeKo-1 cells [1], in the assay on Mino cells [2] and in the assay on Granta519 cells was less than 1 µM in each case. The “Potency in reducing mantle cell lymphoma viability as compared to Ibrutinib” value in [3] is “markedly more potent”. Also, in assay [4], the “Suppression of pBTK(Y223)” value is listed as “suppressed”. For the same compound, the “Suppression of pAKT” value in assay [5] is “suppressed”.

`C=CC(=O)N1CCC[C@@H](n2nc(-c3ccc(Oc4ccccc4)cc3)c3c(N)ncnc32)C1` [Ibrutinib]: the IC50 in the assay with JeKo-1 cells [1] was greater than 50 µM; in the assay on Mino cells [2], 1 to 10 µM; in the assay with Granta519 cells it was 10 to 30 µM. The “Percentage cells in apoptosis” value in the assay with JeKo-1 cells [6] (JeKo-1, 24-hour, Early) was “+ (less than 5%)”; in the assay with JeKo-1 cells [6] (JeKo-1, 24-hour, Late), “+ (less than 5%)”; in the assay on JeKo-1 cells [6] (JeKo-1, 24-hour, Total) it was “+ (less than 5%)”; with JeKo-1 cells [6] (JeKo-1, 48-hour, Early) it was “+ (less than 5%)”; with JeKo-1 cells [6] (JeKo-1, 48-hour, Late), “+ (less than 5%)”; with JeKo-1 cells [6] (JeKo-1, 48-hour, Total), “++ (between 5% and 10%)”. The “Percentage cells in apoptosis” value in the assay on Mino cells [7] (Early) was “++ (between 5% and 10%)”; with Mino cells [7] (Late), “+ (less than 5%)”; in the assay on Mino cells [7] (Total) it was “+++ (between 10% and 30%)”.

Regarding `CN[C@@H]1C[C@H]2O[C@@](C)([C@@H]1OC)n1c3ccccc3c3c4c(c5c6ccccc6n2c5c31)C(=O)NC4` [Staurosporine], the “Percentage cells in apoptosis” value in the assay with JeKo-1 cells [6] (JeKo-1, 24-hour, Early) is “++ (between 5% and 10%)”; in the assay on JeKo-1 cells [6] (JeKo-1, 24-hour, Late), “+ (less than 5%)”; in the assay with JeKo-1 cells [6] (JeKo-1, 24-hour, Total) it was “+++ (between 10% and 30%)”; in the assay on JeKo-1 cells [6] (JeKo-1, 48-hour, Early), “+++ (between 10% and 30%)”; in the assay on JeKo-1 cells [6] (JeKo-1, 48-hour, Late), “+++ (between 10% and 30%)”; with JeKo-1 cells [6] (JeKo-1, 48-hour, Total), “++++ (between 30% and 50%)”. Also, the “Percentage cells in apoptosis” value with Mino cells [7] (Early) was “++++ (between 30% and 50%)”; with Mino cells [7] (Late), “++++ (between 30% and 50%)”; in the assay on Mino cells [7] (Total), “+++++ (more than 50%)”.

Consider `O=c1cc(N2CCOCC2)oc2c(-c3ccc4c(c3)OCCO4)csc12` [Compound 0, reference compound], for which the IC50 in assay [8] was less than 1 µM; in assay [9] it was 1 to 10 µM; at PI3K δ it was less than 1 µM; at PI3K γ, less than 1 µM; at BTK (WT), 10 to 30 µM; on BTK (C481S), 10 to 30 µM. For the same compound, the half-maximal inhibitory concentration (IC50) in the assay on JeKo-1 cells [1] is less than 1 µM; with Mino cells [2] it was less than 1 µM; in the assay with Granta519 cells, 1 to 10 µM. For the same compound, in [3], the “Potency in reducing mantle cell lymphoma viability as compared to Ibrutinib” value is listed as “markedly more potent”.

On to `CS(=O)(=O)CCNCc1ccc(-c2ccc3ncnc(Nc4ccc(OCc5cccc(F)c5)c(Cl)c4)c3c2)o1` [Lapatinib], for which the “Breast cancer stem cells in biopsies” value with breast cancer stem cells is recorded as 5 % of cells.

Take `C=CC(=O)N1CCOc2ccc(-c3csc4c(=O)cc(N5CCN(C)CC5)oc34)cc21` [Compound 6, 1-(7[5-(4-Methyl-1-piperazinyl)-7-oxo-4-oxa-1-thia-3-indenyl]-4-oxa-1-aza-2,3-dihydro-1H-naphth-1-yl]-2-propen-1-one]: the IC50 in assay [8] was 1 to 10 µM; in [9], 10 to 30 µM; at PI3K α it was 30 to 50 µM; on PI3K δ, 1 to 10 µM; on PI3K γ it was greater than 50 µM; on BTK (WT) it was less than 1 µM. The IC50 at BTK (C481S) was in the range of 1 to 10 µM. Also, the “Ratio C481S/WT” value at BTK (C481S) worked out at 11.2.

Take `C=CC(=O)N1CCOc2ccc(-c3csc4c(=O)cc(N5CCNCC5)oc34)cc21` [Compound 5, 1-{7-[7-Oxo-5-(1-piperazinyl)-4-oxa-1-thia-3-indenyl]-4-oxa-1-aza-2,3-dihydro-1H-naphth-1-yl}-2-propen-1-one]: the IC50 is less than 1 µM in assay [8]; 1 to 10 µM in assay [9]; 10 to 30 µM on PI3K α; 1 to 10 µM on PI3K δ; greater than 50 µM on PI3K γ; less than 1 µM on BTK (WT). Also, on BTK (C481S), the IC50 was 10 to 30 µM. The “Ratio C481S/WT” value at BTK (C481S) amounted to 52.0.

As to `C=CC(=O)Nc1cc(OC)cc(-c2csc3c(=O)cc(N4CCOCC4)oc23)c1` [Compound 8, 1-[5-Methoxy-3-(5-morpholino-7-oxo-4-oxa-1-thia-3-indenyl)phenylamino]-2-propen-1-one], the IC50 was less than 1 µM in assay [8]; 1 to 10 µM in assay [9]; less than 1 µM at PI3K α; less than 1 µM on PI3K δ; less than 1 µM at PI3K γ; less than 1 µM on BTK (WT). Moreover, the IC50 on BTK (C481S) is greater than 50 µM. Further, the “Ratio C481S/WT” value on BTK (C481S) is greater than 60.

As for `C=CC(=O)N1CCOc2ccc(-c3csc4c(=O)cc(N5CCN(C(=O)OC(C)(C)C)CC5)oc34)cc21` [Compound 4, tert-butyl 4-[3-(4-acryloyl-1-oxa-4-aza-3,4-dihydro-2H-naphth-6-yl)-7-oxo-4-oxa-1-thia-5-indenyl]-1-piperazinecarboxylate], the half-maximal inhibitory concentration (IC50) in assay [8] was less than 1 µM; in [9], 1 to 10 µM; on PI3K α it was 10 to 30 µM; on PI3K δ, 1 to 10 µM; on PI3K γ, 10 to 30 µM; at BTK (WT) it was less than 1 µM. In addition, the IC50 at BTK (C481S) was 10 to 30 µM. For the same compound, the “Ratio C481S/WT” value at BTK (C481S) came out at 212.
